Reference: PMC10379010, “Short Peptides of Innate Immunity Protein Tag7 (PGLYRP1) Selectively Induce Inhibition or Activation of Tumor Cell Death via TNF Receptor” (International Journal of Molecular Sciences, 2023)
Where a SMILES comes first, the peptide text is derived from it.

Assays:
Hsp70 = molecular target: T1, Hsp70 (Homo sapiens, UniProt P0DMV8); assay: Microscale thermophoresis, binding to labeled Hsp70; conditions: labeled Hsp70 200 nM, 16 ligand concentrations, 20 min, room temperature, triplicate, average ± SD, read-out: Apparent dissociation constant (Kd) with Hsp70
T1 construct: made in house
Excerpt: (§1) Protein–protein interactions of sTNFR1 and Hsp70 with the peptides 17.1, 17.1A and 17.1B and the Tag7 protein were quantified using microscale thermophoresis (MST). This biophysical method is based on the movement of molecules in a temperature gradient, which strongly depends on the charge, the hydration shell and the size of the moving molecules. At least one of these qualities usually changes during the formation of the complex. Therefore, thermophoresis provides a sensitive and reliable method for analyzing and quantifying protein–protein interactions. […] The obtained constants indicate a highly specific interaction of Tag7, 17.1 and 17.1A with sTNFR1. Similarly, clear changes in the thermophoretic signal were observed when Tag7, 17.1 and 17.1B were added to the labeled Hsp70. […]
(§2) The purified sTNFR1 and Hsp70 were fluorescently labeled using the Alexa Fluor 633 or Alexa Fluor 488 staining kit (Eugene, OR, USA) in accordance with the manufacturer’s instructions. sTNFR1 and Hsp70 (200 nM) were incubated for 20 min with each compound in the dark at room temperature at 16 different concentrations obtained by sequential dilution, starting from the highest soluble concentration. The samples were loaded into glass capillaries (Monolith NT Capillaries) and analyzed by thermophoresis using Nano-Temperature Monolith NT 115 apparatus (IR laser power 10%). […]

[1] = tested on: K562 cells (killed by cytotoxic CD4+-T lymphocytes); assay: Inhibition of the cytotoxic activity of CD4+-T lymphocytes; assay type: cell-based; conditions: K562 cells preincubated with peptide 30 min (1 nM), then cytotoxic lymphocytes, ratio 1:20, 24 h; Cytotox 96; n = 5
Method: Figure 5 (a) The peptides were biotinylated and added to cells of the K562 line, followed by incubation for 1 h. Next, the peptides were cross-linked with Hsp70 on the cell surface with BS^3 reagent (Sigma-Aldrich, St. Louis, MO, USA). After stopping the reaction, the cells were lysed in RIP-A (Sigma-Aldrich, St. Louis, MO, USA) buffer in the presence of protease inhibitors. The lysate was purified by magnetic separation on M280 Streptavidin Beads. The obtained fractions containing 17.1A-Hsp70 and 17.1B-Hsp70 were analyzed using 12% SDS-PAGE electrophoresis and Western blot. Complexes were detected using primary antibodies abHsp70 poly-AT and secondary antibodies anti-rabbit peroxidase-linked (ECL). (b) Tumor cells of the K562 line were preincubated with peptides 17.1, 17.1A and 17.1B for 30 min., and then cytotoxic lymphocytes were added and cytotoxic activity was determined (24 h incubation), n = 5 for each point, (* p-value < 0.05). […]
For the cytotoxicity tests, target cells were cultured in 96-well plates (6 × 10^4 cells per well) and mixed with lymphocytes at a ratio of 1:20. The cytotoxicity was measured after 24 h of incubation. […] The cytotoxic activity of the lymphocytes was determined using the Cytotox 96 analysis kit (Promega, Madison, WI, USA) in accordance with the manufacturer’s protocol.

sTNFR1 = molecular target: T2, sTNFR1 (Homo sapiens, UniProt P19438); assay: Microscale thermophoresis, binding to labeled sTNFR1; conditions: labeled sTNFR1 200 nM, 16 ligand concentrations, 20 min, room temperature, triplicate, average ± SD, read-out: Apparent dissociation constant (Kd) with sTNFR1
T2 construct: the soluble extracellular domain of its receptor (sTNFR1); made in house
T2 sequence (P19438 30-211 limits assumed): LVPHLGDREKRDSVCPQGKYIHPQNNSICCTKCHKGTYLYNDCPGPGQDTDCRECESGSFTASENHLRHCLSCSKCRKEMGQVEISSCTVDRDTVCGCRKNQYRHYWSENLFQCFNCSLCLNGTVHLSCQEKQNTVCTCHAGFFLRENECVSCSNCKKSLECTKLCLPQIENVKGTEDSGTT
Excerpt: as §1, §2

[2] = tested on: L929 cells (TNFR1-induced cytotoxicity); assay: Inhibition of TNFR1-dependent cytotoxicity, L929 cells; assay type: cell-based, mouse; conditions: 24 h, peptide added 30 min before TNF (1 nM), only at peptide concentration of 100 nM, n = 5
Method: Figure 2 Cells (HL-60 (a–d) or L-929 (e,f)) were preincubated with peptide 17.1A (a,b) or 17.1B (c–f) for 30 min, and then a cytotoxic agent (TNF, Tag7-Hsp70 complex or autoantibodies) was added and cytotoxic activity was then determined after 3 (a,c,e) or 24 h (b,d,f) of cell incubation. n = 5 for each group). (* p-value < 0.05).
(L929 cells, 24 h of incubation, peptides were added 30 min before incubation with TNF (1 nM)) n = 5 for each point.
For the cytotoxicity tests, target cells were cultured in 96-well plates (6 × 10^4 cells per well) and mixed with lymphocytes at a ratio of 1:20. The cytotoxicity was measured after 24 h of incubation. The inhibition test was performed with peptides 17.1, 17.1A and 17.1B at a concentration of 1 nM. The cytotoxic activity of the lymphocytes was determined using the Cytotox 96 analysis kit (Promega, Madison, WI, USA) in accordance with the manufacturer’s protocol.

T1 sequence (P0DMV8 whole entry): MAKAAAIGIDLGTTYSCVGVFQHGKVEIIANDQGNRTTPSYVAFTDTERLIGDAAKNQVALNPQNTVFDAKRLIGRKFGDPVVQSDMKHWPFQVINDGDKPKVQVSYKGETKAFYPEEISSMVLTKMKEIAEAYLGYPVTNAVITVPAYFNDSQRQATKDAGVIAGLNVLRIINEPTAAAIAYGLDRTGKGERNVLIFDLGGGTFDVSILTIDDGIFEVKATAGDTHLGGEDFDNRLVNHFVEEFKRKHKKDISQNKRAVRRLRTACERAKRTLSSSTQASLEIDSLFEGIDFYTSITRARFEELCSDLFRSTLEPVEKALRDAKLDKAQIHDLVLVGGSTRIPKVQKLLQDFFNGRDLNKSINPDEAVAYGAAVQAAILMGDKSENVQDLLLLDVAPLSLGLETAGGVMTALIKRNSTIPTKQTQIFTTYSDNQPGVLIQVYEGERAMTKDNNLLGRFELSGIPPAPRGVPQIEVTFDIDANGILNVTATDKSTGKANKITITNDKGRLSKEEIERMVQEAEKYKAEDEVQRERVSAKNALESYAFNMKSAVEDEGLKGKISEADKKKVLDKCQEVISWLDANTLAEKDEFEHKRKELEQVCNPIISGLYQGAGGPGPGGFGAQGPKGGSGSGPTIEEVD

SMILES | Kd (Hsp70) [nM] | Effect on the cytotoxic activity of CD4+-T lymphocytes [1] | Kd (sTNFR1) [nM] | Inhibitory effect on TNF cytotoxic activity at 100 nM [2]
CC(C)[C@H](NC(=O)[C@H](CC(=O)O)NC(=O)[C@H](CCCNC(=N)N)NC(=O)[C@@H](N)Cc1c[nH]cn1)C(=O)N[C@@H](CCC(N)=O)C(=O)N[C@@H](CCCNC(=N)N)C(=O)N[C@H](C(=O)O)[C@@H](C)O [17.1A, HRDVQRT] (H-HRDVQRT-OH) | 222 ± 15 | no effect on cell death | – | –
CC(C)C[C@H](NC(=O)[C@@H](NC(=O)[C@H](Cc1ccc(O)cc1)NC(=O)[C@H](CC(N)=O)NC(=O)[C@H](CO)NC(=O)[C@@H](N)CCCNC(=N)N)C(C)C)C(=O)N[C@@H](CCCCN)C(=O)NCC(=O)O [17.1B, RSNYVLKG] (H-RSNYVLKG-OH) | 3.15 ± 0.7 | completely block the cytotoxic effect of lymphocytes | 6690 ± 120 | weak inhibitory effect
